The assay deals with E. coli strain MG1655 and isogenic loss of function strains. As to the kind of experiment: Stressful Lifestyle Adaptive Mutation (SLAM) assay with ciprofloxacin. In kind it is cell-based. The procedure: […]. Five colonies of each strain, selected from 30 ug/mL kan plates, were grown for 24 hours in LB at 37° C. Dilutions of each culture were made in duplicate and plated on LB plates to determine the number of viable cells.
Also, two 150 μL cultures from each strain were plated on five additional plates for use in ‘survival’ experiments (see below). […] Every twenty-four hours for thirteen days post-plating, colonies were counted and marked and up to 10 representative colonies per strain were stocked in 15% glycerol and stored at −80° C., for use in the reconstruction experiments (see below). […]. After thirteen days, a reconstruction experiment [see FIG. 6; also see Bull, H J, Lombardo, M J, Rosenberg, S M: Stationary-phase mutation in the bacterial chromosome: recombination protein and DNA polymerase IV dependence. Proc Natl Acad Sci USA 2001, 98:8334-8341; and Rosenberg, S M: Evolving responsively: adaptive mutation. Nature Rev Genet 2001, 2:504-515] was performed to determine which of the resistant colonies isolated had evolved resistance via adaptive mutation after exposure to the antibiotic. […]. Only those colonies that grew in a shorter time during the reconstruction experiment than in the original experiment were considered to have acquired an adaptive mutation, i.e. occurred after exposure to the antibiotic. […].
[…]. […]

Turning to `O=C(O)c1cn(C2CC2)c2cc(N3CCNCC3)c(F)cc2c1=O` [ciprofloxacin], the “ability to evolve resistance to ciprofloxacin, LexA(Ind−) strain versus wild type” value (LexA S119A mutant, 35 ng/mL ciprofloxacin) is listed as “more than two orders of magnitude less able to evolve resistance”. Further, the “decrease in rate of evolving the ability to grow at 60 ng/mL ciprofloxacin, LexA mutant” value (mutants selected at 35 ng/mL ciprofloxacin) is 300 fold.
